The target in one experiment is human Smo (Homo sapiens (Human), UniProt Q99835). In words: Smo radioligand competition binding assay. The settings on record: for inhibition at 0.05 µM: 0.05 μM test compound, read-out: Smo % inh. @ 0.05 μM. The procedure: Smo Radioligand Competition Binding Assay
Membranes were prepared from a stable cell line created in HEK293FlpIn-TetR cells (Invitrogen) using Flp recombinase-mediated insertion of the pSecTag-FRT/V5-His vector containing a cDNA encoding amino acids […] of human Smo fused to the murine Igk leader sequence to produce a cell surface expressed Smo 181-781 protein. Hygromycin-resistant clones were obtained and stained for LacZ expression (no expression indicates a correct knock-in of fusion cDNA). LacZ-negative cells were analyzed for binding tritiated Smo antagonists. For membrane preparation, the HEK293 cells expressing Smo 181-781 were grown to 90% confluence in nine to fifteen 245 mm×245 mm×22 mm dishes, washed with Dulbecco's PBS (15 mL per dish) and harvested via scraping in 10 mL of DPBS. The cells were collected and centrifuged at 1500 rpm (400×g) for 10 min at 4° C. The cell pellets were re-suspended in 40 mL of cold DPBS and washed by centrifugation at 2300 rpm (950×g max) for 10 minutes at 4° C. The supernatant was aspirated and the cell pellet was snap frozen in a methanol/dry ice bath and stored at −70° C. For membrane preparation, 15 mL of Membrane Preparation Buffer (50 mM Tris-HCl pH 7.5, 250 mM sucrose with Roche complete protease cocktail tablets) was added to the tube containing the cell pellet, then cells are rapidly thawed, and homogenized using an Ultra-Turrax T8 (IKA Labortechnik) set on “6” for 15 seconds for 5-6 times in icy water bath. This homogenate was diluted up to 50 mL using Membrane Preparation Buffer and centrifuged at 35,000 rpm in a Beckman Ti45 rotor (140,000×g) for 35 minutes at 4° C. followed by aspiration of the supernatant and re-suspension of the pellet in 5 mL of Assay Buffer (50 mM Tris-HCl pH 7.5, 100 mM NaCl, 25 mM MgCl2, 1 mM EDTA, and 0.1% protease free bovine serum albumin). The re-suspended pellet was then homogenized in a glass tissue grinder. The re-suspended membranes were aliquoted (0.5 mL aliquots), snap frozen and stored at −70° C. Total protein in the membrane preparation was determined using the Pierce BCA protein assay (Pierce Chemical).
For the binding competition assay, 100 μL of Assay Buffer was added to all the wells of a 96 well GF/B filter plate (Millipore MultiScreen-HTS-FB cat# MSFBN6B50) for 10 minutes to pre-wet the filter prior to evacuation of the buffer (8 inches Hg for 8 seconds). To the pre-wet wells is added: 20 μL of Assay Buffer, 10 μL diluted test agent, 20 μL of a tritiated Smo antagonist (15 nM stock solution), and 50 μL of membrane preparation (40 μg total protein per well). The plates are sealed and mixed at room temperature for 5 min, incubated at room temperature for 2 hours, then washed 5 times with 100 μL/each of wash buffer and vacuum dried for 8 seconds at 8 inches Hg. The plate is then dried for one hour in a 60° C. oven prior to the addition of 45 μL of Microscint 20 (Packard, #6013621) to each well and incubation at RT for 30 minutes to 1 hour. The plate is counted in a TopCount scintillation counter (Perkin Elmer).
Data analysis uses Excel for % Inhibition and Graphpad Prism for IC50 calculation. Total binding (TB, in the absence of inhibitors)=average of tritiated Smo antagonist 3 nM+Smo membrane (40 μg/wells (approx 5000-7000 CPM)). Non-specific binding (NSB)=average of tritiated Smo antagonist (3 nM)+cold Smo antagonist (30 μM)+Smo membrane (approx 600-1200 CPM). Specific binding (SB)=(total binding−non-specific binding). % Inhibition=[1−(compound Specific binding/control Specific binding)]×100%. IC50 is calculated by fitting the data to the four parameter sigmoidal dose-response curve (variable slope) Y=Bottom+(Top-Bottom)/(1+10^((LogEC50−X)*HillSlope)). X is the logarithm of the inhibitor concentration. Y is the response; Y starts at Bottom and goes to Top with a sigmoid shape.
(In general: Loss of bound radioactivity is the signal in a displacement assay; it reports binding, not function.)

A further experiment deals with Gli-Luc/MEF cells. In words: Gli-Luc/MEF assay. It is filed as cell-based, mouse. The settings on record: Mus musculus, MEF; Shh-stimulated luciferase, 48 hours. The procedure:
The Gli-Luc/MEF cells obtained from Gli-Luc transgenic mice contain a luciferase reporter gene under the control of the Gli response element. Luciferase activity stimulated with Sonic hedgehog ligand was inhibited by Smo inhibitors, and IC50 was subsequently calculated.
Plates were incubated at 37° C. and 5% CO2 overnight. On day two, cells were dosed with test compounds at a final concentration ranging from 3 μM to 50 μM at a 3-time series dilution. Immediately after dosing cells with compounds, recombinant mouse sonic hedgehog (Shh, R&D Systems 464-SH) was added to a final concentration of 2 μg/mL. The cells were incubated with compounds and Shh for 48 hours at 37° C. and 5% CO2. Luciferase assays were conducted on Day 4 using the Bright-Glo Luciferase assay system (Promega E2620) according to Promega's protocol. Briefly, Bright-Glo luciferase reagent was made up and 25 μL were added to each well of the 384-well plate containing media. Plates were kept at room temperature for 5 minutes, and then read on an Envision Luminescence plate reader (Perkin-Elmer). IC50 of the inhibition was calculated by using GraphPad Prism.

Usually IC50 stands for the concentration at which inhibition is half-maximal.

Chain of human Smo (Q99835 181-787): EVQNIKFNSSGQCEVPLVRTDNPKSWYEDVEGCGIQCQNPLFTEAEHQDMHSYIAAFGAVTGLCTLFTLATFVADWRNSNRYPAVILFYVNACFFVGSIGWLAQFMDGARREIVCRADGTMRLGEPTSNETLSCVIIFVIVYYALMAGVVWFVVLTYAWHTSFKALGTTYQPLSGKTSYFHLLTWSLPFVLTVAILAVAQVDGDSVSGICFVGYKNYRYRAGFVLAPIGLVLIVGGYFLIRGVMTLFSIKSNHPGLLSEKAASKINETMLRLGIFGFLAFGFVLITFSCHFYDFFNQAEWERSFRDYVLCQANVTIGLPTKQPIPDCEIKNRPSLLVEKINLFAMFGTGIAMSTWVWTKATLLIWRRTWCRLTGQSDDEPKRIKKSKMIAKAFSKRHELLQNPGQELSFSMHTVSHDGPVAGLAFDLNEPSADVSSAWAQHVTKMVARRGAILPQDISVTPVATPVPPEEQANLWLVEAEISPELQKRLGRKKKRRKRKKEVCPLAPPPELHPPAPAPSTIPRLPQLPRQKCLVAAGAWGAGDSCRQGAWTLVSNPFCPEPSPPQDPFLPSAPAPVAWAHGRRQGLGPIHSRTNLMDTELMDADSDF

For `Cc1cccnc1-c1cc(N2CCC(C(=O)Nc3cnn(C)n3)CC2)ncc1Cl` [Example A-88, 1-(5′-chloro-3-methyl-2,4′-bipyridin-2′-yl)-N-(2-methyl-2H-1,2,3-triazol-4-yl)piperidine-4-carboxamide], the IC50 at human Smo came to 49 nM; in the experiment with Gli-Luc/MEF cells, 53 nM. Further, on human Smo, the inhibition at 0.05 µM turned out to be 85.6%.

As to `Cc1cnc(-c2cc(N3CCC(NC(=O)CN(C)C)CC3)ncc2Cl)c(C)c1` [Example A-114, N-(1-(5′-chloro-3,5-dimethyl-[2,4′-bipyridin]-2′-yl)piperidin-4-yl)-2-(dimethylamino)acetamide], the results for the IC50 on human Smo and in the experiment with Gli-Luc/MEF cells were 19.2 nM and 3.86 nM, respectively. Further, on human Smo, the inhibition at 0.05 µM worked out at 94.5%.

Take `Cc1cccnc1-c1nc(N2CCC(O)CC2)ncc1Cl` [Example A-30, 1-[5-chloro-4-(3-methylpyridin-2-yl)pyrimidin-2-yl]piperidin-4-ol]: the IC50 turned out to be 160 nM at human Smo and 246 nM in the experiment on Gli-Luc/MEF cells. Moreover, on human Smo, the inhibition at 0.05 µM came to 77.7%.

For `CC(C)(O)CC(=O)NC1CCN(c2ccc(Cl)c(-c3ccccn3)n2)CC1` [Example A-131, N-[1-(3-chloro-2,2′-bipyridin-6-yl)piperidin-4-yl]-3-hydroxy-3-methylbutanamide], on human Smo, the IC50 worked out at 30.5 nM and the inhibition at 0.05 µM stood at 92.7%. Besides, the IC50 with Gli-Luc/MEF cells came to 20.7 nM.

Take `CS(=O)(=O)NC1CCN(c2cc(-c3ccc(F)cn3)c(Cl)cn2)CC1` [Example A-18, N-[1-(5′-chloro-5-fluoro-2,4′-bipyridin-2′-yl)piperidin-4-yl]methanesulfonamide]: at human Smo, the IC50 was 343 nM and the inhibition at 0.05 µM is 58.9%. The molecule further returned an IC50 in the experiment with Gli-Luc/MEF cells of 82 nM.

For the molecule `NS(=O)(=O)CC1CCN(c2ccc(Cl)c(-c3ccccn3)n2)CC1` [Example A-91, 1-[1-(3-chloro-2,2′-bipyridin-6-yl)piperidin-4-yl]methanesulfonamide], on human Smo, the IC50 was determined as 26.3 nM and the inhibition at 0.05 µM amounted to 92.7%. Moreover, the IC50 in the experiment on Gli-Luc/MEF cells worked out at 28.6 nM.

On to `Cc1cnc(-c2c(Cl)cnc(N3CCC(NC(=O)CCS(C)(=O)=O)CC3)c2F)c(C)c1` [Example A-139, N-(1-(5′-chloro-3′-fluoro-3,5-dimethyl-2,4′-bipyridin-2′-yl)piperidin-4-yl)-3-(methylsulfonyl)propanamide], for which, at human Smo, the IC50 came out at 17.8 nM and the inhibition at 0.05 µM came to 101%. Half-maximal inhibition with Gli-Luc/MEF cells (IC50) was put at 1.96 nM.

As to `Cc1cc(F)cnc1-c1cc(N2CCC(NS(=O)(=O)CC(C)(C)O)CC2)ncc1Cl` [Example A-153, N-[1-(5′-chloro-5-fluoro-3-methyl-2,4′-bipyridin-2′-yl)piperidin-4-yl]-2-hydroxy-2-methylpropane-1-sulfonamide], at human Smo, the IC50 amounted to 10.6 nM and the inhibition at 0.05 µM worked out at 96.4%. Further, 4.71 nM corresponded to half-maximal inhibition in the experiment on Gli-Luc/MEF cells (IC50).

In the case of `Cc1cccnc1-c1cc(N2CCN(c3ncc(Br)cn3)CC2)ncc1Cl` [Example A-46, 2′-[4-(5-bromopyrimidin-2-yl)piperazin-1-yl]-5′-chloro-3-methyl-2,4′-bipyridine], on human Smo, the inhibition at 0.05 µM was determined as 97.6%. The IC50 in the experiment on Gli-Luc/MEF cells turned out to be 21.1 nM.

Regarding `CS(=O)(=O)NC1CCN(c2cc(-c3ccc(C(F)(F)F)cn3)c(Cl)cn2)CC1` [Example A-13, N-{1-[5′-chloro-5-(trifluoromethyl)-2,4′-bipyridin-2′-yl]piperidin-4-yl}methanesulfonamide], the values for the IC50 at human Smo and in the experiment with Gli-Luc/MEF cells were 110 nM and 404 nM, respectively. Further, the inhibition at 0.05 µM on human Smo worked out at 56%.

Regarding `Cc1cnc(-c2cc(N3CCN(C(=O)CCO)CC3)ncc2Cl)c(C)c1` [Example A-106, 3-[4-(5′-chloro-3,5-dimethyl-2,4′-bipyridin-2′-yl)piperazin-1-yl]-3-oxopropan-1-ol], at human Smo, the IC50 was 65.7 nM and the inhibition at 0.05 µM worked out at 86%. For the same molecule, the IC50 with Gli-Luc/MEF cells is 36.5 nM.

Regarding `Cc1cnc(-c2cc(N3CCC(CS(N)(=O)=O)CC3)ncc2Cl)c(C)c1` [Example A-118, 1-[1-(5′-chloro-3,5-dimethyl-2,4′-bipyridin-2′-yl)piperidin-4-yl]methanesulfonamide], the IC50 on human Smo stood at 11.1 nM; in the experiment on Gli-Luc/MEF cells, 8.46 nM. For the same molecule, the inhibition at 0.05 µM on human Smo is 93.8%.

`Cc1cccnc1-c1cc(N2CCC(C(=O)N3CCc4c(c(C(C)C)nn4C)C3)CC2)ncc1Cl` [Example A-65, 5′-chloro-2′-{4-[(3-isopropyl-1-methyl-1,4,6,7-tetrahydro-5H-pyrazolo[4,3-c]pyridin-5-yl)carbonyl]piperidin-1-yl}-3-methyl-2,4′-bipyridine]: the IC50 at human Smo came out at 145 nM; with Gli-Luc/MEF cells, 124 nM. Also, the inhibition at 0.05 µM at human Smo turned out to be 78.5%.

As for `Cc1cccnc1-c1cc(N2CCC(CNS(C)(=O)=O)CC2)ncc1Cl` [Example A-48, N-{[1-(5′-chloro-3-methyl-2,4′-bipyridin-2′-yl)piperidin-4-yl]methyl}methanesulfonamide], at human Smo, the IC50 is 57 nM and the inhibition at 0.05 µM came to 82%. The molecule also registered an IC50 with Gli-Luc/MEF cells of 48 nM.

On to `Cc1cccnc1-c1nc(N2CCN(S(C)(=O)=O)CC2)ncc1Cl` [Example A-33, 5-chloro-4-(3-methylpyridin-2-yl)-2-[4-(methylsulfonyl)piperazin-1-yl]pyrimidine], for which, at human Smo, the IC50 is 172 nM and the inhibition at 0.05 µM came out at 76.9%. In addition, the IC50 in the experiment with Gli-Luc/MEF cells is 113 nM.

Turning to `O=S(=O)(NC1CCN(c2ccc(Cl)c(-c3ccccn3)n2)CC1)C1CC1` [Example A-133, N-[1-(3-chloro-2,2′-bipyridin-6-yl)piperidin-4-yl]cyclopropanesulfonamide], the inhibition at 0.05 µM on human Smo was 94.3%. The molecule further gave an IC50 in the experiment on Gli-Luc/MEF cells of 11.7 nM.

As to `CS(=O)(=O)NC1CCN(c2cc(-c3ncc(Cl)cc3F)c(Cl)cn2)CC1` [Example A-17, N-[1-(5,5′-dichloro-3-fluoro-2,4′-bipyridin-2′-yl)piperidin-4-yl]methanesulfonamide], on human Smo, the IC50 came out at 511 nM and the inhibition at 0.05 µM was found to be 63%. Further, half-maximal inhibition in the experiment with Gli-Luc/MEF cells (IC50) was put at 60 nM.

Take `Cc1cccnc1-c1cc(N2CCC(C(=O)NC3CCOCC3)CC2)ncc1Cl` [Example A-77, 1-(5′-chloro-3-methyl-2,4′-bipyridin-2′-yl)-N-(tetrahydro-2H-pyran-4-yl)piperidine-4-carboxamide]: the figures for the IC50 on human Smo and in the experiment on Gli-Luc/MEF cells were 52.5 nM and 48.4 nM, respectively. For the same molecule, the inhibition at 0.05 µM on human Smo amounted to 87.7%.

Regarding `Cc1cccnc1-c1cc(N2[C@@H]3CC[C@H]2CN(C(=O)CC(C)(C)O)C3)ncc1Cl` [Example A-107, 1-[(1R,5S)-8-(5′-chloro-3-methyl-2,4′-bipyridin-2′-yl)-3,8-diazabicyclo[3.2.1]oct-3-yl]-3-hydroxy-3-methylbutan-1-one], the inhibition at 0.05 µM on human Smo amounted to 82.7%. In the experiment on Gli-Luc/MEF cells, this molecule returned an IC50 of 41.5 nM.

For the origin of these results see US9056865B2, “Pyridine-2-derivatives as smoothened receptor modulators” (Pfizer Inc., priority 2010, dated 2015).
